Consider 56 compounds from the OPERA property sets (Mansouri et al. 2018).

Settings in one series: not given
`COc1ccc(C(=O)O)cc1OC`: the log10 vapour pressure (mmHg) was -3.61 and the melting point came out at 181 °C.

Turning to `CC1C=CCC2C(=O)OC(=O)C12` (stereo not given), the ready biodegradability entry is “not readily biodegradable”.

`C=CC(C)(C)C` showed a boiling point of 41.2 °C, a log10 vapour pressure (mmHg) of 2.63 and a melting point of -115 °C.

On to `CCCOCC(C)O` (stereo not given), for which the boiling point worked out at 150 °C, the log10 vapour pressure (mmHg) worked out at 0.23 and the melting point was -80 °C.

`CCOc1ccccc1Cl` displayed a boiling point of 210 °C.

The compound `C1CCC2C(C1)CCC1C3CCCCC3CCC21` (stereo not given) returned a boiling point of 353 °C and a melting point of 115 °C.

`Clc1cc2oc3cc(Cl)c(Cl)c(Cl)c3c2c(Cl)c1Cl` yielded a log10 Koa of 10.9.

As to `O=C(O)c1cc(Cl)cc(Cl)c1Cl`, the log10 vapour pressure (mmHg) was -3.51 and the melting point is 166 °C.

Compound `CC(C)(C)C(=O)C=Cc1ccccc1` displayed a melting point of 43 °C.

`C=C[N+](=O)[O-]` gave a boiling point of 98.5 °C and a melting point of -55.5 °C.

As for `OC(c1ccc(Cl)cc1)(c1ccc(Cl)cc1)C(Cl)(Cl)Cl`, the log10 Koc (L/kg) was 3.7, the log10 vapour pressure (mmHg) was -6.4, the melting point was 77.5 °C and the ready biodegradability entry is given as “not readily biodegradable”.

Consider `O=C(O)CCCCCCBr`, for which the boiling point amounted to 280 °C, the melting point is 31 °C and the ready biodegradability result was “readily biodegradable”.

For the compound `CCCN(C)C`, the boiling point is 66 °C.

In the case of `O=[N+]([O-])c1cc(C(F)(F)F)ccc1Cl`, the boiling point was determined as 222 °C and the melting point is -2.5 °C.

With `Cc1ccc2cccc(O)c2n1`, the boiling point is 267 °C and the melting point turned out to be 73.8 °C.

For the compound `O=c1ccc2ccc(O)cc2o1`, the melting point is 230 °C.

`NC(=O)CC(N)C(=O)O` (stereo not given) yielded a melting point of 234 °C.

Take `CCCCC(CC)C(=O)OCC(COC(=O)C(CC)CCCC)(COC(=O)C(CC)CCCC)COC(=O)C(CC)CCCC` (stereo not given): the ready biodegradability result was “not readily biodegradable”.

`CCCCCS(=O)(=O)O` gave a melting point of 15.9 °C.

For `C=C(C)C(=O)OCc1ccccc1`, the ready biodegradability entry was “readily biodegradable”.

Compound `CC(C)COC(=O)OCC(C)C` had a boiling point of 190 °C.

For `COC(=O)c1ccc(C)cc1C`, the boiling point worked out at 232 °C and the melting point is -2 °C.

Take `CCCCCCCCCCCCCCCCOC(=O)CCCCCCCCCCCCCCC`: the melting point is 54 °C.

`O=C(NC(Cc1ccccc1)c1ccccc1)c1cccnc1` (stereo not given) gave a melting point of 159 °C.

With `Clc1cccnc1Cl`, the melting point came out at 66 °C.

Take `C=C[C@@](C)(O)CC/C=C(/C)CCC=C(C)C`: the boiling point came out at 276 °C.

`CC(C(O)c1ccccc1)N(C)C/C=C/c1ccccc1` (stereo not given) returned a melting point of 75 °C.

`N#CC1=C(C#N)C(=O)C(Cl)=C(Cl)C1=O` displayed a melting point of 214 °C.

The compound `Cc1cccc(C=O)c1` showed a boiling point of 199 °C.

Compound `c1ncncn1` displayed a boiling point of 114 °C and a melting point of 86 °C.

The compound `CCOC(=O)CCCOc1ccc(Cl)cc1C` registered a log10 vapour pressure (mmHg) of -5.84 and a melting point of -1 °C.

In turn, `CC(=O)CCCO` returned a boiling point of 209 °C.

The compound `Brc1cccc(Br)c1Br` yielded a melting point of 87.5 °C.

On to `CC(C)(C)NCC(O)COc1ccccc1C#N` (stereo not given), for which the melting point was 164 °C.

The compound `C[C@]12CC[C@H](O)CC1=CC[C@@H]1[C@@H]2CC[C@@]2(C)[C@H]1CC[C@]2(C)O` displayed a melting point of 206 °C.

Compound `CCCCCCCCCOC(=O)c1ccc(N)cc1` had a melting point of 69 °C.

In the case of `c1ccc(CSCc2ccccc2)cc1`, the melting point is 49.5 °C.

In turn, `Oc1ccc2c(c1)CCC2` registered a boiling point of 253 °C, a log10 Koc (L/kg) of 3.4 and a melting point of 58 °C.

Take `O=[N+]([O-])c1ccccc1C(F)(F)F`: the boiling point came out at 217 °C and the melting point turned out to be 32.5 °C.

`CC(C)CC(C)Cl` (stereo not given) displayed a boiling point of 113 °C.

Compound `CC=CCCC=CC` registered a boiling point of 124 °C and a melting point of -76 °C.

For the compound `CC(C)=CC1C(C(=O)OCN2C(=O)C3=C(CCCC3)C2=O)C1(C)C` (stereo not given), the melting point was 69 °C and the ready biodegradability entry is given as “not readily biodegradable”.

`S=C=Nc1ccc(Cl)cc1` showed a boiling point of 250 °C and a melting point of 46 °C.

Compound `CC1(C)CCc2ccccc21` came in with a boiling point of 191 °C.

Compound `NN1C(=O)CSC1=S` displayed a melting point of 102 °C.

`C1COCCO1`: the boiling point was 102 °C, the log10 Henry constant (atm·m³/mol) is -5.32, the log10 Koa was determined as 3.18 and the log10 Koc (L/kg) was 1.23. For the same compound, the log10 vapour pressure (mmHg) worked out at 1.58, the melting point was 11.8 °C and the ready biodegradability entry is listed as “not readily biodegradable”.

Regarding `Oc1ccccc1`, the boiling point came out at 182 °C, the log10 Henry constant (atm·m³/mol) was -6.48, the log10 Koc (L/kg) was 1.43 and the log10 vapour pressure (mmHg) was -0.456. For the same compound, the melting point is 40.9 °C and the ready biodegradability entry is given as “readily biodegradable”.

Turning to `O=[N+]([O-])c1ccccc1Cl`, the ready biodegradability entry is on record as “not readily biodegradable”.

Consider `O/N=C\c1cc[n+](COC[n+]2ccc(/C=N\O)cc2)cc1.[Cl-].[Cl-]`, for which the melting point worked out at 220 °C.

The compound `C1=CCCC=CCC1` had a boiling point of 151 °C, a log10 vapour pressure (mmHg) of 0.695 and a melting point of -56.4 °C.

`C[C@@H](N)C(C)(C)C` came in with a boiling point of 102 °C and a melting point of -20 °C.

`CCCC(=O)c1ccc(C)cc1`: the boiling point amounted to 252 °C and the melting point stood at 12 °C.

For `Cc1cc(C2(c3cc(C)c(O)c(Br)c3)OS(=O)(=O)c3ccccc32)cc(Br)c1O`, the melting point was found to be 242 °C.

Take `NC1CCCCC1`: the boiling point came out at 134 °C, the log10 Henry constant (atm·m³/mol) is -5.38, the log10 vapour pressure (mmHg) was determined as 1 and the melting point was -17.7 °C. Also, the ready biodegradability entry is on record as “readily biodegradable”.

With `C1OCC2(CO1)COCOC2`, the melting point turned out to be 48.3 °C.

The same series, now with this note: fish.
Regarding `Clc1ccc(Oc2c(Cl)cc(Cl)cc2Cl)c(Cl)c1`, the log10 biotransformation half-life (days) is 1.69.

In turn, `OC(c1ccc(Cl)cc1)(c1ccc(Cl)cc1)C(Cl)(Cl)Cl` came in with a log10 BCF of 3.79 and a log10 biotransformation half-life (days) of 1.99.

For `C1COCCO1`, the log10 BCF is -0.3.

Regarding `Oc1ccccc1`, the log10 BCF is 1.24.

Consider `O=[N+]([O-])c1ccccc1Cl`, for which the log10 BCF was 1.17 and the log10 biotransformation half-life (days) is -0.58.
